According to patent US20250177269A1, “COMPOSITION FOR PROMOTING HAIR SPROUTING OR HAIR GROWTH CONTAINING A THYMOL ESTER-BASED COMPOUND” (AMOREPACIFIC CORPORATION, priority 2023, published 2025):

Test system: dermal papilla (DP) cells and outer root sheath (ORS) cells
Test: "Two-Cell Assemblage" Assay, hair growth-promoting efficacy
Assay type: cell-based
Details: 10 ppm, 20 ppm; cultured for 5 days; vs. control
Method: The hair growth-promoting efficacy of 3,4,5-trimethoxycinnamate thymol ester (Melasolv) according to the concentration (10 ppm, 20 ppm) was evaluated using “Two-Cell Assemblage” Assay (“Two-Cell Assemblage” Assay: A Simple in vitro Method for Screening Hair Growth-Promoting Compounds) (Front Cell Dev Biol. 2020 Nov. 24; 8:581528).
The “Two-Cell Assemblage” Assay is an evaluation method that mimics the hair growth of actual hair follicles by co-culturing dermal papilla (DP) cells and outer root sheath (ORS) cells that constitute the hair follicle. That is, the length growth of the “Two-Cell Assemblage” structure has a mechanism similar to that of the actual hair follicle growth, and is being used as a new method of evaluating hair growth-promoting efficacy.
5,000 hair follicle dermal papilla cells were seeded on an ultra-low attachment 96-well plate to form 3D spheroids. After 24 hours, 5,000 outer root sheath cells (Kyungpook National University Industry-Academic Cooperation Foundation) were added together with the test substance to create a “Two-Cell assemblage” structure and cultured for 5 days under 37° C., 5% CO2 conditions. After culturing for 5 days, the length growth was measured using a microscope (OLYMPUS, SZX16) and shown in the Figure (* p<0.05, ** p<0.01, *** p<0.001 vs. control).

COc1cc(/C=C/C(=O)Oc2cc(C)ccc2C(C)C)cc(OC)c1OC [Melasolv, (5-methyl-2-propan-2-ylphenyl) (E)-3-(3,4,5-trimethoxyphenyl) prop-2-enoate]
length growth of the "Two-Cell Assemblage" structure (hair growth efficacy): significant level of length growth-promoting efficacy
